Patent US20260234139A1, “PGDH INHIBITORS AND METHODS OF MAKING AND USING” (Epirium Bio Inc., priority 2023, published 2026)

Key:
A549 = A549 EC50 (cell assay, method not described); assay type: cell-based; conditions: Homo sapiens, A549, A549
15-PGDH/HPGD = molecular target: T1, 15-PGDH/HPGD (Homo sapiens, UniProt P15428); assay: hPGDH inhibitor screening biochemical assay; conditions: 10 nM enzyme, 15 μM Prostaglandin E2, 0.25 mM NAD, fluorescence ex/em 340/485 nm
T1 construct: purchased R&D System 5660-DH
T1 sequence (P15428 1-266): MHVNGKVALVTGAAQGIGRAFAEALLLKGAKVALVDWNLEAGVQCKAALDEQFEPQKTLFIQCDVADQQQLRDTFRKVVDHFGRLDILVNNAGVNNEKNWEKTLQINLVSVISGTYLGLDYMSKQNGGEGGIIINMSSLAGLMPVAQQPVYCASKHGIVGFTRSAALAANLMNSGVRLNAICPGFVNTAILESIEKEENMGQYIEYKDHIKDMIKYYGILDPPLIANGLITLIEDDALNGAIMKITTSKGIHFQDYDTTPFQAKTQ
Method in brief: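 Recombinant 15-PGDH (10 nM) preincubated with compound 10 min at 37° C, then 15 μM PGE2 and 0.25 mM NAD⁺ added for 10 min at room temperature in 50 mM Tris-HCl pH 7.5, 0.01% Tween 20. NADH fluorescence at ex/em 340/485 nm; 10-point dose response.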

SMILES | EC50 (A549) [nM] | IC50 (15-PGDH/HPGD) [nM]
CCOC1([C@@H](O)c2cnc3c(cnn3-c3cccc(-c4nnc[nH]4)c3)c2)CC1 [Compound 63B] | 100 to 1000 | < 100
O[C@@H](c1cnc2c(cnn2-c2ccc3nc(N4CCOCC4)nn3c2)c1)C1COC1 [Compound 64B] | < 100 | < 100
CNC(=O)c1ccc(-n2ncc3cc([C@H](O)COC(C)C)cnc32)cc1 [Compound 67A] | < 100 | < 100
O[C@@H](c1cnc2c(cnn2-c2cccc(-c3nnc[nH]3)c2)c1)[C@@H]1CCOC1 [Compound 68A] | < 100 | < 100
O[C@H](c1cnc2c(cnn2-c2cccc(-c3nnc[nH]3)c2)c1)[C@H]1CCOC1 [Compound 68B] | < 100 | < 100
O[C@@H](c1cnc2c(cnn2-c2cccc(-c3nnc[nH]3)c2)c1)[C@H]1CCOC1 [Compound 68C] | < 100 | < 100
CC(C)OC[C@@H](O)c1cnc2c(cnn2-c2ccc(CCC(=O)O)cc2)c1 [Compound 69A] | < 100 | < 100
CC(C)OC[C@@H](O)c1cnc2c(cnn2-c2ccc(CC(=O)O)cc2)c1 [Compound 71A] | 100 to 1000 | 100 to 1000
O=C(O)c1ccc(-n2ncc3cc([C@H](O)C4(OCC(F)F)CC4)cnc32)cc1 [Compound 72A] | 100 to 1000 | < 100
O[C@@H](c1cnc2c(cnn2-c2cccc(-c3nnc[nH]3)c2)c1)C1(OCC(F)F)CC1 [Compound 73B] | ≥ 1000 | ≥ 1000
CC(C)OC[C@H](O)c1cnc2c(cnn2-c2ccc(OCC(=O)O)c(F)c2)c1 [Compound 74B] | ≥ 1000 | 100 to 1000
O[C@H](COC1CCC1)c1cnc2c(cnn2-c2ccc(N3CCCC3)cc2)c1 [Compound 75A] | 100 to 1000 | 100 to 1000
O[C@@H](COC1CCC1)c1cnc2c(cnn2-c2ccc(N3CCCC3)cc2)c1 [Compound 75B] | ≥ 1000 | ≥ 1000
O[C@H](COC1CCC1)c1cnc2c(cnn2-c2ccc(N3CCOCC3)cc2)c1 [Compound 76B] | ≥ 1000 | ≥ 1000
CC(C)OC[C@H](O)c1cnc2c(cnn2-c2ccc(OCC(=O)O)cc2)c1 [Compound 78A] | ≥ 1000 | 100 to 1000
O[C@H](COC1CCC1)c1cnc2c(cnn2-c2ccc(-c3nnn[nH]3)cc2)c1 [Compound 79A] | 100 to 1000 | < 100

SMILES | EC50 (A549) [nM] | IC50 (15-PGDH/HPGD) [nM]
CN(C)C(=O)c1ccc(-n2ncc3cc([C@H](O)COC4CCC4)cnc32)cc1 [Compound 80A] | < 100 | < 100
NC(=O)c1ccc(-n2ncc3cc([C@H](O)COC4CCC4)cnc32)cc1 [Compound 81A] | < 100 | < 100
O=C(O)CCc1ccc(-n2ncc3cc([C@@H](O)COC4CCC4)cnc32)cc1F [Compound 82A] | 100 to 1000 | < 100
CCOC1([C@H](O)c2cnc3c(cnn3-c3cccc(-c4nnc[nH]4)c3)c2)CCC1 [Compound 83A] | 100 to 1000 | 100 to 1000
CCOC1([C@@H](O)c2cnc3c(cnn3-c3cccc(-c4nnc[nH]4)c3)c2)CCC1 [Compound 83B] | ≥ 1000 | 100 to 1000
CCOC1([C@H](O)c2cnc3c(cnn3-c3ccc(C(=O)O)cc3)c2)CCC1 [Compound 85A] | ≥ 1000 | 100 to 1000
CCOC1([C@@H](O)c2cnc3c(cnn3-c3ccc(C(=O)O)cc3)c2)CCC1 [Compound 85B] | ≥ 1000 | ≥ 1000
O=C(O)CCc1ccc(-n2ncc3cc([C@H](O)COC4CCCC4)cnc32)cc1F [Compound 88B] | 100 to 1000 | < 100
O=C(O)c1ccc(-n2ncc3cc([C@H](O)COC4CCCC4)cnc32)cc1 [Compound 89B] | < 100 | < 100
CCC1(OC[C@@H](O)c2cnc3c(cnn3-c3ccc(C(=O)O)cc3)c2)CC1 [Compound 93B] | < 100 | < 100
O=C(O)c1ccc(-n2ncc3cc([C@@H](O)COC4CCC4)cnc32)cc1F [Compound 94A] | < 100 | < 100
O=C(O)c1ccc(-n2ncc3cc([C@H](O)COC4CCC4)cnc32)cc1F [Compound 94B] | ≥ 1000 | < 100
Cc1cc(-n2ncc3cc([C@@H](O)COC4CCC4)cnc32)ccc1C(=O)O [Compound 95A] | < 100 | < 100
O=C(O)c1ccc(-n2ncc3cc([C@H](O)COC4CCC4)cnc32)cn1 [Compound 96A] | ≥ 1000 | < 100
O=C(O)c1ccc(-n2ncc3cc([C@@H](O)COC4CCC4)cnc32)cn1 [Compound 96B] | 100 to 1000 | < 100

Second part, the compound after the results:

EC50 (A549) [nM] | IC50 (15-PGDH/HPGD) [nM] | SMILES
≥ 1000 | ≥ 1000 | CCOC1([C@H](O)c2cnc3c(cnn3-c3cccc(-c4nnc[nH]4)c3)c2)CC1 [Compound 63A]
100 to 1000 | 100 to 1000 | O[C@H](c1cnc2c(cnn2-c2ccc3nc(N4CCOCC4)nn3c2)c1)C1COC1 [Compound 64A]
100 to 1000 | 100 to 1000 | COC1([C@@H](O)c2cnc3c(cnn3-c3cccc(-c4nnc[nH]4)c3)c2)CCC1 [Compound 65A]
≥ 1000 | ≥ 1000 | COC1([C@H](O)c2cnc3c(cnn3-c3cccc(-c4nnc[nH]4)c3)c2)CCC1 [Compound 65B]
< 100 | < 100 | CC(C)OC[C@@H](O)c1cnc2c(cnn2-c2ccc(CCCC(=O)O)cc2)c1 [Compound 66A]
100 to 1000 | 100 to 1000 | CC(C)OC[C@H](O)c1cnc2c(cnn2-c2ccc(CCCC(=O)O)cc2)c1 [Compound 66B]
100 to 1000 | < 100 | CNC(=O)c1ccc(-n2ncc3cc([C@@H](O)COC(C)C)cnc32)cc1 [Compound 67B]
100 to 1000 | < 100 | O[C@H](c1cnc2c(cnn2-c2cccc(-c3nnc[nH]3)c2)c1)[C@@H]1CCOC1 [Compound 68D]
100 to 1000 | 100 to 1000 | CC(C)OC[C@H](O)c1cnc2c(cnn2-c2ccc(CCC(=O)O)cc2)c1 [Compound 69B]
≥ 1000 | ≥ 1000 | CC(C)OC[C@H](O)c1cnc2c(cnn2-c2ccc(CC(=O)O)cc2)c1 [Compound 71B]
≥ 1000 | ≥ 1000 | O=C(O)c1ccc(-n2ncc3cc([C@@H](O)C4(OCC(F)F)CC4)cnc32)cc1 [Compound 72B]
100 to 1000 | < 100 | O[C@H](c1cnc2c(cnn2-c2cccc(-c3nnc[nH]3)c2)c1)C1(OCC(F)F)CC1 [Compound 73A]
100 to 1000 | < 100 | CC(C)OC[C@@H](O)c1cnc2c(cnn2-c2ccc(OCC(=O)O)c(F)c2)c1 [Compound 74A]
≥ 1000 | 100 to 1000 | O[C@@H](COC1CCC1)c1cnc2c(cnn2-c2ccc(N3CCOCC3)cc2)c1 [Compound 76A]
< 100 | < 100 | CC(C)OC[C@@H](O)c1cnc2c(cnn2-c2ccc(CCCC(=O)O)c(F)c2)c1 [Compound 77A]
≥ 1000 | ≥ 1000 | CN(C)C(=O)c1ccc(-n2ncc3cc([C@@H](O)COC4CCC4)cnc32)cc1 [Compound 80B]

EC50 (A549) [nM] | IC50 (15-PGDH/HPGD) [nM] | SMILES
100 to 1000 | < 100 | NC(=O)c1ccc(-n2ncc3cc([C@@H](O)COC4CCC4)cnc32)cc1 [Compound 81B]
< 100 | < 100 | CNC(=O)c1ccc(-n2ncc3cc([C@H](O)COC4CCC4)cnc32)cc1 [Compound 84A]
≥ 1000 | 100 to 1000 | CNC(=O)c1ccc(-n2ncc3cc([C@@H](O)COC4CCC4)cnc32)cc1 [Compound 84B]
< 100 | < 100 | O=C(O)CCc1ccc(-n2ncc3cc([C@@H](O)COC4CC4)cnc32)cc1F [Compound 86A]
≥ 1000 | < 100 | O=C(O)[C@H]1CCN(c2ccc(-n3ncc4cc([C@@H](O)COC5CCC5)cnc43)cc2)C1 [Compound 87A]
100 to 1000 | 100 to 1000 | O=C(O)[C@@H]1CCN(c2ccc(-n3ncc4cc([C@H](O)COC5CCC5)cnc43)cc2)C1 [Compound 87B]
≥ 1000 | 100 to 1000 | O=C(O)CCc1ccc(-n2ncc3cc([C@@H](O)COC4CCCC4)cnc32)cc1F [Compound 88A]
≥ 1000 | < 100 | O=C(O)c1ccc(-n2ncc3cc([C@@H](O)COC4CCCC4)cnc32)cc1 [Compound 89A]
100 to 1000 | < 100 | CC1(OC[C@H](O)c2cnc3c(cnn3-c3ccc(C(=O)O)cc3)c2)CCC1 [Compound 90A]
< 100 | < 100 | CC1(OC[C@@H](O)c2cnc3c(cnn3-c3ccc(C(=O)O)cc3)c2)CCC1 [Compound 90B]
≥ 1000 | < 100 | CC1(OC[C@H](O)c2cnc3c(cnn3-c3ccc(C(=O)O)cc3)c2)CC1 [Compound 92A]
< 100 | < 100 | CC1(OC[C@@H](O)c2cnc3c(cnn3-c3ccc(C(=O)O)cc3)c2)CC1 [Compound 92B]
100 to 1000 | < 100 | CCC1(OC[C@H](O)c2cnc3c(cnn3-c3ccc(C(=O)O)cc3)c2)CC1 [Compound 93A]
≥ 1000 | 100 to 1000 | Cc1cc(-n2ncc3cc([C@H](O)COC4CCC4)cnc32)ccc1C(=O)O [Compound 95B]
< 100 | < 100 | CC1(COC[C@H](O)c2cnc3c(cnn3-c3ccc(C(=O)O)cc3)c2)CC1 [Compound 106A]
